# Patent US5776720A, “Assay reagent” (priority 1995, dated 1998)
# Where “and” joins values, the source holds several entries; their conditions need not be identical. Equal entries are not always repeated. Numbered stars: 1 amine (or outer) side, 2 acyl side, 3 side chain; on linkers, the order of the positions; unused ones are H or OH. Bridge positions count the residues as written; N and C are the ends. Peptide text beside a SMILES is read from it. I, II: the chains in the order shown. Rhodamine110 = O=C1OC2(c3ccc(N[*:1])cc3Oc3cc(N[*:2])ccc32)c2ccccc21
# Columns and labels:
# Type in all cases: cell-based, human
# [1] = tested on: Ala-aminopeptidase and Lys-aminopeptidase, Dipeptidyl peptidase IV and Cathepsin D; experiment: Panel of substrates in normals and HIV+ patients (Table 4)
# Experimental: A panel of assay compounds are assembled consisting of Ala-aminopeptidase and Lys-aminopeptidase, Dipeptidyl peptidase IV (Ala-Ala)2 rhodamine 110 and Cathepsin D to indicate possible TB infection in AIDS related cases.
# A panel of enzymatic substrates is performed consisting of Ala-aminopeptidase and Lys-aminopeptidase, Dipeptidyl peptidase IV (Ala-Ala)2 rhodamine 110 and Cathepsin D to indicate possible TB infection in AIDS related cases.
# lymphocytes = experiment: Normal leukocyte enzyme activity (Table 3A), lymphocytes; set-up: unit not given here; details: normal donors
# Source text: (§1) The measured fluorescence intensity can be converted from mean channel fluorescence (in peak or integrated mode) to MESF (molecules of equivalent soluble fluorochrome, Flow Cytometry Standards Corp. , San Juan, Puerto Rico) or International Units of hydrolysis per cell. A normal range of enzyme activity is established by assaying males and females in sufficient quantity to characterize the population levels statistically.
# (§2) A normal in house adult donor pool was drawn, recording sex and determining that no known disease state was present at the time of sample draw. Criteria for rejecting samples included patients under medication, patients with infection or inflammation of any type, colds and flu as well as any known medical illness such as cancer, heart ailment and high blood pressure. A donor list of 75 patients has been developed and a mean and 2 sd range established. A subgroup of "super normals" was developed from this list by examining the 75 patients to determine which group falls closest to the mean for all enzymes in all cell types tested. These patients were used as the "wellness index" or best group of "normalcy" patients. If a study required the use of children or newborns then this same format was used to develop a data base for these age groups.
# monocytes = experiment: Normal leukocyte enzyme activity (Table 3A), monocytes; set-up: unit not given here; details: normal donors
# Source text: as §1, §2
# granulocytes = experiment: Normal leukocyte enzyme activity (Table 3A), granulocytes; set-up: unit not given here; details: normal donors
# Source text: as §1, §2
# erythrocytes = experiment: Normal erythrocyte enzyme activity (Table 3B); details: normal donors
# Experimental: A sample, consisting of whole blood (in EDTA, Heparin or ACD) or dissociated tissue or body fluids (synovial fluid) or cell culture media is obtained and stored in a manner so as not to decrease viability. The sample is washed sufficiently to remove plasma, media, body fluid, debris and extra-cellular enzymes. The wash media consists of a physiologically balanced buffered salt solution. The washed cells are incubated at 37° C. 50 μL of sample and 25 μL of substrate media are mixed together and allowed to incubate at 37° C. for a predetermined amount of time. At the end of the incubation period, the sample is then measured for fluorescence.
# as §2
# MONOS = experiment: Aberrant enzyme activities in febrile children (Table 7), monos
# GRANS = experiment: Aberrant enzyme activities in febrile children (Table 7), grans
Compound,"NORMAL LEUKOCYTE ENZYME ACTIVITY, LYMPHS Mean (lymphocytes)","NORMAL LEUKOCYTE ENZYME ACTIVITY, MONOS Mean (monocytes)","NORMAL LEUKOCYTE ENZYME ACTIVITY, GRANS Mean (granulocytes)",NORMAL E[…] ACTIVITY MEAN (erythrocytes),further results
NC(=O)CC[C@H](N)C(=O)N[C@@H](CO)C(=O)Nc1ccc2c(c1)Oc1cc(NC(=O)[C@H](CO)NC(=O)[C@@H](N)CCC(N)=O)ccc1C21OC(=O)c2ccccc21 (relative stereo) [GLN--SER*],,,,,MEAN DELTA FL ([1]; HIV + PATIENTS): 13.7 and 12.7; MEAN DELTA FL ([1]; NORMALS): 11.9 and 6.1
O=C1OC2(c3ccc(OC4O[C@H](CO)[C@@H](O)[C@H](O)[C@H]4O)cc3Oc3cc(OC4O[C@H](CO)[C@@H](O)[C@H](O)[C@H]4O)ccc32)c2ccccc21 (stereo partly drawn) [DIGLUC (FL)],0.23,1.89,0.45,0.110,
"O=C1OC2(c3ccc(OP(=O)(O)O)cc3Oc3cc(OP(=O)(O)O)ccc32)c2ccccc21 [DPO4, (PO4)2 fluorescein]",54.29,148.32,85.42,0.151,
"CC(=O)Oc1ccc2c(c1)Oc1cc(OC(C)=O)ccc1C21OC(=O)c2ccccc21 [FDA, fluorescein diacetate, reference compound]",13.38,,68.37,0.126,
"CC(=O)Oc1ccc2c(c1)Oc1cc(OC(C)=O)ccc1C21OC(=O)c2ccccc21 [FDA--NAF, fluorescein diacetate, reference compound]",17.98,93.36,81.99,0.136,
"C[C@H](NC(=O)CNC(=O)[C@H](Cc1ccccc1)NC(=O)CN)C(=O)Nc1ccc2c(c1)Oc1cc(NC(=O)[C@H](C)NC(=O)CNC(=O)[C@H](Cc3ccccc3)NC(=O)CN)ccc1C21OC(=O)c2ccccc21 [GFGA, (Gly-Phe-Gly-Ala)2 Rho 110] (I: H-GFGA / II: H-GFGA; linker I:C-II:C via Rhodamine110)",,1.01,,0.131,
"CC(C)C[C@H](NC(=O)[C@@H]1CCCN1C(=O)CN)C(=O)NCC(=O)N1CCC[C@H]1C(=O)Nc1ccc2c(c1)Oc1cc(NC(=O)[C@@H]3CCCN3C(=O)CNC(=O)[C@H](CC(C)C)NC(=O)[C@@H]3CCCN3C(=O)CN)ccc1C21OC(=O)c2ccccc21 [GPLGP, (H--Gly--Pro--Leu--Gly--Pro)2 Rho 110.2TFA] (I: H-GPLGP / II: H-GPLGP; linker I:C-II:C via Rhodamine110)",8.97,23.38,16.88,0.164,
"CC(C)C[C@H](NC(=O)CNC(=O)[C@@H](N)CC(C)C)C(=O)NCC(=O)Nc1ccc2c(c1)Oc1cc(NC(=O)CNC(=O)[C@H](CC(C)C)NC(=O)CNC(=O)[C@@H](N)CC(C)C)ccc1C21OC(=O)c2ccccc21 [LGLG, (H--L--Leu--Gly--Leu--Gly)2 Rho 110.2TFA] (I: H-LGLG / II: H-LGLG; linker I:C-II:C via Rhodamine110)",1.42,11.36,4.08,0.122,
"N=C(N)NCCC[C@H](N)C(=O)NCC(=O)N[C@@H](CCC(=O)O)C(=O)N[C@@H](CO)C(=O)Nc1ccc2c(c1)Oc1cc(NC(=O)[C@H](CO)NC(=O)[C@H](CCC(=O)O)NC(=O)CNC(=O)[C@@H](N)CCCNC(=N)N)ccc1C21OC(=O)c2ccccc21 (stereo partly drawn) [RGES, (Arg-Gly-Glu-Ser)2 Rho 110] (I: H-RGES / II: H-RGES; linker I:C-II:C via Rhodamine110)",1.43,8.37,3.96,0.118,
"C[C@H](NC(=O)OCc1ccccc1)C(=O)N[C@@H](C)C(=O)Nc1ccc2c(c1)Oc1cc(NC(=O)[C@H](C)NC(=O)[C@H](C)NC(=O)OCc3ccccc3)ccc1C21OC(=O)c2ccccc21 [Z--AA, (Z--Ala--Ala)2 Rho 110]",151.20,328.25,363.20,,
"C[C@H](NC(=O)OCc1ccccc1)C(=O)NCC(=O)Nc1ccc2c(c1)Oc1cc(NC(=O)CNC(=O)[C@H](C)NC(=O)OCc3ccccc3)ccc1C21OC(=O)c2ccccc21 [Z--AG, (Z--Ala--Gly)2 Rho 110]",15.17,34.51,33.19,,
N=C(N)NCCC[C@H](NC(=O)OCc1ccccc1)C(=O)Nc1ccc2c(c1)Oc1cc(NC(=O)[C@H](CCCNC(=N)N)NC(=O)OCc3ccccc3)ccc1C21OC(=O)c2ccccc21 (stereo partly drawn) [Z--ARG],2.02,16.80,7.22,0.106,
"O=C(NCC(=O)N1CCC[C@H]1C(=O)Nc1ccc2c(c1)Oc1cc(NC(=O)[C@@H]3CCCN3C(=O)CNC(=O)OCc3ccccc3)ccc1C21OC(=O)c2ccccc21)OCc1ccccc1 [Z--GP, (carbobenzyloxycarbonyl-Gly-Pro)2 Rho 110]",107.56,225.10,240.99,,
"C[C@@H](O)[C@H](NC(=O)OCc1ccccc1)C(=O)N1CCC[C@H]1C(=O)Nc1ccc2c(c1)Oc1cc(NC(=O)[C@@H]3CCCN3C(=O)[C@@H](NC(=O)OCc3ccccc3)[C@@H](C)O)ccc1C21OC(=O)c2ccccc21 [Z--TP6.5, (carbobenzyloxycarbonyl-Thr-Pro)2 Rho 110 (pH 6.5)]",21.97,49.69,58.05,,
(Val-Lys)2 Rho 110 (modified) [VK--M],2.05,43.37,4.31,,
(carbobenzyloxycarbonyl-Gly-Pro)2 Rho 110 (modified) [Z--GP--M],53.74,119.81,130.62,,
ALA--GLY*,,,,,"MEAN DELTA FL ([1]; HIV + PATIENTS): 29.7; MEAN DELTA FL ([1]; HIV + PATIENTS, listed as ALA--GLY****): 39.9; MEAN DELTA FL ([1]; NORMALS): 31.6; MEAN DELTA FL ([1]; NORMALS, listed as ALA--GLY****): 48.0"
dichlorofluorescein,,,,0.268,aberrant enzyme activity (MONOS; P89 Viral Stomatitis): + (>0.25 Increase over normal range); aberrant enzyme activity (MONOS; P92 Adenitis): + (>0.25 Increase over normal range); aberrant enzyme activity (MONOS; P95 Viral Syndrome): + (>0.25 Increase over normal range); aberrant enzyme activity (MONOS; P96 Viral Syndrome): + (>0.25 Increase over normal range); aberrant enzyme activity (MONOS; P97 Pyelonephritis): + (>0.25 Increase over normal range); aberrant enzyme activity (MONOS; P101 Fever-Unknown Origin): + (>0.25 Increase over normal range); aberrant enzyme activity (MONOS; P103 Viral Syndrome): °; aberrant enzyme activity (GRANS; P89 Viral Stomatitis): + (>0.25 Increase over normal range); aberrant enzyme activity (GRANS; P92 Adenitis): + (>0.25 Increase over normal range); aberrant enzyme activity (GRANS; P95 Viral Syndrome): + (>0.25 Increase over normal range); aberrant enzyme activity (GRANS; P96 Viral Syndrome): + (>0.25 Increase over normal range); aberrant enzyme activity (GRANS; P97 Pyelonephritis): + (>0.25 Increase over normal range); aberrant enzyme activity (GRANS; P101 Fever-Unknown Origin): + (>0.25 Increase over normal range); aberrant enzyme activity (GRANS; P103 Viral Syndrome): + (>0.25 Increase over normal range)
